Experimental data reported in ChEMBL document CHEMBL3046842, “Antimicrobial and insect antifeedant activities of some Trogers bases” (2012).
Calls of active or inactive are those of the source.

Assays:
[1] = tested on: Candida albicans; assay: Antifungal activity against Candida albicans at 250 ug/ml after 72 hrs by disc diffusion method; type: functional; conditions: for zone of inhibition at 250 µg/mL: read-out: IZ
[2] = tested on: Escherichia coli; assay: Antibacterial activity against Escherichia coli at 250 ug/ml after 24 to 45 hrs by disc diffusion method; type: functional; conditions: read-out: IZ
[3] = tested on: Aspergillus niger; assay: Antifungal activity against Aspergillus niger at 50 ug/ml after 72 hrs by disc diffusion method; type: functional, organism-based
[4] = tested on: Penicillium; assay: Antifungal activity against Penicillium at 50 ug/ml after 72 hrs by disc diffusion method; type: functional, organism-based
[5] = tested on: Enterococcus faecalis; assay: Antibacterial activity against Enterococcus faecalis at 250 ug/ml after 24 to 45 hrs by disc diffusion method; type: functional; conditions: for zone of inhibition at 250 µg/mL: read-out: IZ
[6] = tested on: Pseudomonas; assay: Antibacterial activity against Pseudomonas at 250 ug/ml after 24 to 45 hrs by disc diffusion method; type: functional; conditions: read-out: IZ
[7] = tested on: Proteus vulgaris; assay: Antibacterial activity against Proteus vulgaris at 250 ug/ml after 24 to 45 hrs by disc diffusion method; type: functional; conditions: read-out: IZ
[8] = tested on: Staphylococcus aureus; assay: Antibacterial activity against Staphylococcus aureus at 250 ug/ml after 24 to 45 hrs by disc diffusion method; type: functional; conditions: read-out: IZ
[9] = tested on: Achaea janata; assay: Antifeedant activity against fourth instar larvae of Achaea janata fed on compound treated castor leaves at 200 ppm after 24 hrs by leaf disc method; type: functional, organism-based
[10] = tested on: Klebsiella pneumoniae; assay: Antibacterial activity against Klebsiella pneumoniae at 250 ug/ml after 24 to 45 hrs by disc diffusion method; type: functional; conditions: read-out: IZ

Row | Compound | zone of inhibition at 250 µg/mL [1] [mm] | zone of inhibition at 250 µg/mL [2] [mm] | Activity [3] | Activity [4] | zone of inhibition at 250 µg/mL [5] [mm] | zone of inhibition at 250 µg/mL [6] [mm] | zone of inhibition at 250 µg/mL [7] [mm] | zone of inhibition at 250 µg/mL [8] [mm] | Activity [9] | zone of inhibition at 250 µg/mL [10] [mm] | Activity [5] | Activity [1]
1 | Cc1cc(I)c2c(c1)CN1CN2Cc2cc(C)cc(I)c21 | 13 | 13 | inactive | inactive | 8 | 8 | 13 | 13 | Active | 13 | – | –
2 | COc1ccc2c(c1Br)CN1CN2Cc2c1ccc(OC)c2Br | 13 | 20 | Active | Active | 13 | 20 | 20 | 20 | Active | 20 | – | –
3 | Brc1ccc2c(c1)N1Cc3ccc(Br)cc3N(C2)C1 | 8 | 8 | inactive | inactive | – | 8 | 8 | 13 | Active | 8 | inactive | –
4 | Cc1ccc2c(c1Br)CN1CN2Cc2c1ccc(C)c2Br | 8 | 13 | inactive | inactive | 8 | 13 | 13 | 13 | Active | 13 | – | –
5 | Cc1cc(Cl)cc2c1N1Cc3cc(Cl)cc(C)c3N(C2)C1 | 8 | 8 | inactive | Active | 13 | 13 | 8 | 8 | Active | 13 | – | –
6 | Cc1cc2c(cc1I)N1Cc3cc(C)c(I)cc3N(C2)C1 | 13 | 8 | inactive | inactive | – | 8 | 8 | 13 | Active | 8 | inactive | –
7 | Fc1ccc2c(c1)N1Cc3ccc(F)cc3N(C2)C1 | 8 | 13 | inactive | inactive | – | 8 | 13 | 13 | Active | 13 | inactive | –
8 | Fc1cccc2c1N1Cc3cccc(F)c3N(C2)C1 | 8 | 13 | inactive | inactive | – | 8 | 8 | 8 | Active | 8 | inactive | –
9 | c1ccc2c(c1)CN1CN2Cc2ccccc21 | – | 8 | inactive | inactive | – | 8 | 8 | 13 | – | 8 | inactive | inactive
10 | Cc1cc(N)cc2c1N1Cc3cc(N)cc(C)c3N(C2)C1 | 13 | 13 | inactive | inactive | 8 | 13 | 13 | 13 | – | 13 | – | –
